Legend:
[1] = Stability of the active ingredient in solubilized formulations (remaining titer by HPLC); type: physicochemical; details: stored at 25° C.
Method: The following experiment was conducted to investigate the stability of theasinensin A as an active ingredient.
First, a solubilized formulation comprising the theasinensin A prepared in Preparation Example (Example 1) and a solubilized formulation comprising EGCG (Comparative Example 1) were prepared with the following compositions.
Then, the titer of theasinensin A or EGCG remaining in the formulations of Example 1 and Comparative Example 1 was analyzed by high-performance liquid chromatography (HPLC) with 1-week intervals. Specifically, after storing 10 mL of each composition of Example 1 and Comparative Example 1 at 25° C. and sonicating the same with 1-week intervals after diluting 10 fold with methanol followed by filtering, the content was analyzed by HPLC.

[2] = system: melanin production in B16 cells; assay: Inhibition of intra/extracellular melanin production in α-MSH-treated B16 cells; type: cell-based; details: 72 hours; for extracellular melanin content compared to the control group treated only with α-MSH / intracellular melanin content compared to the control group treated only with α-MSH: B16 cells, 200 nM α-MSH, 2.5, 5 or 10 ppm
Method: For investigation of the skin-brightening effect of theasinensin A, the effect of inhibiting intra/extracellular melanin production was tested as follows.
First, after treating B16 cells (ATCC, Cat No CRL-6475) with 200 nM of α-melanocyte-stimulating hormone (α-MSH) and with theasinensin A as an example of the present disclosure or EGCG as a comparative example at nontoxic concentrations of 10 ppm or lower (2.5, 5 or 10 ppm), the intracellular and extracellular melanin contents 72 hours after the treatment were measured by correcting to the protein contents, and represented as % of melanin contents with respect to a non-theasinensin A-treated control group.
The intracellular melanin content is shown in FIG. 5 (TSA) and FIG. 6 (EGCG), and the extracellular melanin content is shown in FIG. 7 (TSA) and FIG. 8 (EGCG).

[3] = system: matrix metalloproteinase-1 (MMP-1) expression in UVB-irradiated HS68 cells; assay: Inhibition of MMP-1 expression in UVB-irradiated HS68 cells (ELISA); type: cell-based, human; details: 48 hours
Method: For investigation of the effect of reducing skin wrinkles and enhancing skin elasticity of theasinensin A, the effect of inhibiting the expression of matrix metalloproteinase-1 (MMP-1), which is a collagenase in the human body, was tested as follows.
First, a cell culture was prepared by treating UVB-irradiated HS68 cells (ATCC, Cat No CRL-1635) with the theasinensin A prepared in Preparation Example at 2.5, 5 or 10 ppm. After culturing HS68 cells (ATCC, Cat No CRL-1635) in a separate medium and adding phosphate-buffered saline (PBS) thereto after removing the medium, UVB was irradiated with an intensity of 30 mJ/cm^2. The UVB-irradiated cells were treated with the previously prepared theasinensin A-treated culture and cultured for 48 hours in an incubator. After recovering the culture, MMP-1 expression level was measured using a MMP-1 ELISA kit (Amersham, RPN2610).

[4] = DPPH radical-scavenging assay (antioxidant effect); details: 100 μM DPPH in ethanol, 37° C., 30 minutes
Method: For investigation of the antioxidant effect of theasinensin A, the effect of inhibiting 2,2-diphenyl-1-picrylhydrazyl (DPPH) was tested as follows.
The 2,2-diphenyl-1-picrylhydrazyl (DPPH, Sigma D9132) radical dissolved in an organic solvent has the maximum absorbance at 515 nm. Since an antioxidant substance scavenges the DPPH radical and turns it colorless, antioxidant effect can be compared by measuring the DPPH radical-scavenging activity of theasinensin A through DPPH assay.
First, theasinensin A (TSA) was dissolved in ethanol such that the concentration of the theasinensin A (TSA) was 0.3125, 0.625, 1.25, 2.5, 5 and 10 ppm, respectively. The solutions of different concentrations were added to a 96-well plate, 10 μL each. Then, after adding 190 μL of 100 μM DPPH completely dissolved in ethanol to each solution and storing at 37° C. for 30 minutes, absorbance was measured at 515 nm.
DPPH assay was conducted in the same manner for 0.625, 1.25, 2.5, 5 and 10 ppm of vitamin C (Vit.C) as positive control groups and a negative control group (N.T.) not treated with theasinensin A (TSA) or vitamin C (Vit.C).

[5] = about 4 weeks later, solubilized formulation with 0.02 wt % active (Example 1 / Comparative Example 1)

| amount of active ingredient remaining in the solubilized formulation (of total amount used) ([1]; 1 week later, solubilized formulation with 0.02 wt % active (Comparative Example 1)) | amount of active ingredient remaining in the solubilized formulation (of total amount used) [1, 5] | IC50 of DPPH activity inhibition ([4]; absorbance at 515 nm) [ppm] | SMILES | extracellular melanin content compared to the control group treated only with α-MSH [2] | intracellular melanin content compared to the control group treated only with α-MSH [2] | inhibition of MMP-1 expression ([3]; UVB-irradiated (30 mJ/cm^2) HS68 cells, 2.5, 5 or 10 ppm, concentration-dependent) [%] | concentration at which MMP-1 expression level was inhibited significantly ([3]; UVB-irradiated HS68 cells) [ppm] | concentration at which DPPH activity was inhibited significantly [4] [ppm] | inhibition at 10 ppm ([2]; Mus musculus, 10 ppm, B16 cells with 200 nM α-MSH) [%] |
| --- | --- | --- | --- | --- | --- | --- | --- | --- | --- |
| less than 80 wt % | less than 40 wt % |  | O=C(O[C@@H]1Cc2c(O)cc(O)cc2O[C@@H]1c1cc(O)c(O)c(O)c1)c1cc(O)c(O)c(O)c1 [EGCG, epigallocatechin gallate, reference compound] | increased | increased |  |  |  |  |
|  | ≥ 87 wt % | 5.9 | O=C(O[C@@H]1Cc2c(O)cc(O)cc2O[C@@H]1c1cc(O)c(O)c(O)c1-c1c([C@H]2Oc3cc(O)cc(O)c3C[C@H]2OC(=O)c2cc(O)c(O)c(O)c2)cc(O)c(O)c1O)c1cc(O)c(O)c(O)c1 [theasinensin A] | decreased melanin content | decreased melanin content | ≥ 50 | ≥ 2.5 | ≥ 0.3 | ~30 |

Reference: patent US12097276B2, “Cosmetic composition comprising theasinensin A” (AMOREPACIFIC CORPORATION, priority 2018, dated 2024)
